US9006394B2, “Peptide-presenting surfaces for long-term culture of pluripotent cells” (Wisconsin Alumni Research Foundation, priority 2008, dated 2015)
Ends that are not written are not given here.

Assays:
hESCs = assay: Long-term (3 months) culture on defined surfaces, markers of pluripotency; type: cell-based, human; details: 3 months of continuous passaging
Excerpt: Preferably, one spots ATs onto an inert background to form self-assembling monolayers (SAMs). See, e.g., Derda et al., supra; Derda R, et al., “Solid-phase synthesis of alkanethiols for the preparation of self-assembled monolayers,” Langmuir 23:11164-11167 (2007); and Houseman B & Mrksich M, “Efficient solid-phase synthesis of peptide-substituted alkanethiols for the preparation of substrates that support the adhesion of cells,” J. Org. Chem. 63:7552-7555 (1998), each of which is incorporated herein by reference as if set forth in its entirety. For example, a background can be formed of perfluoro-AT, which can be both cytophobic (i.e., repel cells) and solvophobic (i.e., repel solvents). First, a gold-coated surface can be coated with a perfluoro-AT monolayer, either leaving areas (i.e., holes) in the monolayer for the elements of an array or creating areas in the monolayer for the elements of the array in a subsequent step. Then, ATs coupled to a peptide, such as an GBP as described herein, can be attached to the substrate in the holes to complete the monolayer and to present ligands for pluripotent cell attachment to the surface. Surface density of the GBPs can be controlled using mixed SAMs of peptide-ATs and non-adhesive glucamine-ATs. […]
Flow cytometry data was obtained using a FACSCalibur™ (BD Biosciences) and analyzed using FlowJo Software (Tree Star, Inc.; Ashland, Oreg.). […]

[1] = system: hES cells (H9 and H13) and vector-free iPS cells (DF19-9); assay: Cell growth over two passages (Cell Counting Kit-8); type: cell-based, human
Experimental: hESCs (H9) were cultured on Matrigel, vitronectin, polylysine, […] (SEQ ID NO: 1), or KGRGDS (SEQ ID NO: 5) over two passages in mTeSR media supplemented with 5 μm ROCK inhibitor. Cell counts were calculated at each time point using Cell Counting Kit-8 (Dojindo Molecular Technologies, Inc., Rockville, Md.).

human ESCs (H9) = assay: Cell adhesion (CellTiter-Glo) with soluble heparin or chondroitinase ABC; type: cell-based; details: 1 hour
Experimental: To determine the effect of a soluble GAG on hESC binding to GBPs, hESCs were plated onto Matrigel-coated surfaces, vitronectin-coated surfaces, or surfaces presenting the heparin-binding peptide […] (SEQ ID NO: 1) in the presence or absence of soluble heparin (0.5 mg/mL). After 1 hour, the surfaces were washed and the cells lysed. The cell lysates were used to determine approximate cell numbers using Cell Titer Glo (Promega). The ratio of the mean luminescence of the cell lysates of cells plated in the presence of heparin versus those without heparin was expressed as percent cell binding for each surface.
To determine if glycosaminoglycans (GAGs) are required for GBP binding, human ESCs (H9) cultured on Matrigel were dissociated using an enzyme-free, Hanks'-based cell dissociation buffer (Sigma) for 10-15 minutes. Cells were resuspended in DMEM/F12 (Gibco), or DMEM/F12 supplemented with 2 units/mL chondroitinase ABC (Sigma), or 500 ug/mL heparin (Sigma). Cells treated with the GAG-degrading enzymes were incubated for 1 hour in suspension at 37° C. Cell suspensions were seeded onto Matrigel-coated surfaces, recombinant vitronectin-coated surfaces (10 μg/mL, R&D Systems), or SAMs presenting the peptide […] (SEQ ID NO: 1) at a 5% surface density. After 1 hour, surfaces were washed 3 times with PBS and the cells were lysed with M-PER buffer (Thermo Fisher Scientific, Inc., Rockford, Ill.). The cell lysate was mixed with CellTiter-Glo (Promega) to determine the number of viable cells in culture based on the presence of ATP. The luminescence was measured on 20/20^n luminometer (Turner Biosystems, Inc., Sunnyvale Calif.). • Cell Growth: […]

pluripotent stem cells = assay: Number of cell divisions by fluorescent cell staining; type: cell-based, human; details: listed as GKKQRFRHRNKG

For “GKKQRFRHRNRKG (not fully specified (C-terminus); listed as Homo sapiens)”, the “markers of pluripotency after 3 months of culture” value (hESCs) was “maintained high levels of markers of pluripotency”, the “markers of pluripotency after 3 months of culture” value (hESCs; listed as SEQ ID NO:1) was “maintained at high levels” and the “plating efficiency after 24 hours” value ([1]; 24 hours) was “equivalent”. For the same sequence, the “cell numbers after each passage” value ([1]; two passages, mTeSR with ROCK inhibitor) was “Increased cell numbers”, the “adhesion of cells treated with chondroitinase ABC” value (human ESCs (H9); 2 units/mL chondroitinase ABC, 5% surface density) was “decreased adhesion” and the “hESC binding in the presence of soluble heparin” value (human ESCs (H9); soluble heparin 0.5 mg/mL) was “abrogate hESC binding”. The “number of cell divisions” value (pluripotent stem cells) was “superior to polylysine-coated surfaces” and the “karyotype by standard G banding” value (H9 hESCs) was “karyotypically normal”.
